From a melting point compilation (Tetko et al.; mined from patent text by program, amines drawn as free bases though some values may be those of a salt)

SMILES | melting point
Cc1cccc(NC(c2ccc(OC(C)C)cc2)c2ccc3cccnc3c2O)n1 (stereo not given) | 132 to 134 °C
COC(=O)C(C(=O)OC)C(Cc1c(N)cccc1C(F)(F)F)c1ccc(OC)cc1 (stereo not given) | 111 to 113 °C
CC(C)[C@H]1C(C(F)(F)F)OC(=O)N1Cc1ccccc1 (stereo not given in full) | 92 to 93 °C
COC(=O)c1cccc(S(=O)(=O)Cc2c(O)ccc3c2CCCC3=O)c1 | 230 to 232 °C
CC(=O)C(C#N)c1cccc(Cl)c1 (stereo not given) | 92 to 97 °C
C[N+](C)([O-])c1ccc(/C=C/c2c(F)cccc2Cl)cc1 | 82 to 84 °C
CC(C)(C)c1cc(C(C)(C)C)c(O)c(S(=O)(=O)Nc2ccc([N+](=O)[O-])cc2Cl)c1 | 158 to 161 °C
O=C(c1cc(C(F)(F)F)cc(C(F)(F)F)c1)N1CCC2(CC1)C(=O)NCN2c1cccc(Cl)c1 | 235 to 236 °C
CC=C1CCC2C3CCC4CC(O)CCC4(C)C3C(N(C)C)CC12C (stereo not given) | 59 to 61 °C
COc1cc(C#N)cc2c1OC(C)(C)C2 | 73 to 74 °C
CC(C)(C)c1cc(SC2(Sc3cc(C(C)(C)C)c(O)c(C(C)(C)C)c3)CCCCCC2)cc(C(C)(C)C)c1O | 144 to 146 °C
Nc1ccc(CS(=O)(=O)CCO)c(CS(=O)(=O)CCO)c1 | 168 to 171 °C
O=C(O)COc1c(-c2cccc(Cl)c2)cc(C(=O)NCCCCc2ccccc2)cc1-c1cccc(C(F)(F)F)c1 | 187 to 190 °C
c1ccc(-c2ccc3nc(C4(c5ccc6[nH]nnc6c5)N=c5ccccc5=N4)[nH]c3c2)cc1 | > 280 °C
CN(Cc1cc(C(=O)OC(C)(C)C)ccc1[N+](=O)[O-])C(=O)OC(C)(C)C | 56 to 58 °C
NC(=O)c1ccc2ccn(C3CCN(CCc4ccc(F)cc4)CC3)c2c1 | 238 to 240 °C
CCOCc1nc2c(N)nc3cc(Br)cnc3c2n1CC(C)C | 163 to 164 °C
CN1CC(C(=O)CN2CCOCC2)CC2c3cccc4c3c(cn4C)CC21 (stereo not given) | 198 to 200 °C
COc1ccc2c(c1)C(CCNC(=O)C(F)(F)F)C(c1ccccc1)C2 (stereo not given) | 109 to 111 °C
CS(=O)(=O)CCC(C#N)CC#N (stereo not given) | 123 to 125 °C
O=C(C1CCCCC1)N1CC(=O)N(CCc2ccccc2)C(O)C1 (stereo not given) | 134 °C

SMILES | melting point
CS(=O)(=O)N1CCN2C(=O)N(c3ccc(C#N)c4ccccc34)C(=O)C2C1 (stereo not given) | 207 to 216 °C
Cc1ncc(C(=O)O)nc1C | 187 °C
O=C(Nc1ccc(Cl)c(Cl)c1)ONC1=Nc2ccc([N+](=O)[O-])cc2C(c2ccccc2Cl)=NC1 | 190 to 192 °C
CCON=C(CC)C1=C(O)CC(c2c(C)c3c(c(C)c2Cl)CC(C)(CC)C3)CC1=O (stereo not given) | 56 to 58 °C
CCOC(=O)C(=O)C1C(=O)c2cccc3cccc1c23 (stereo not given) | 101 to 103 °C
CCn1nc2c(N)nc3ncccc3c2c1CC(C)(C)O | 283 to 286 °C
COc1ccc(-c2nc(C(O)(C(F)(F)F)C(F)(F)F)[nH]c2-c2ccc(OC)cc2)cc1 | 144 to 146 °C
Nc1sc2c(c1C(=O)c1ccc(Br)s1)CCN(Cc1ccccc1)C2 | 87 to 89 °C
CC(C(=O)c1ccccc1)=C1CCCN1 | 91 to 92 °C
CCc1c(C)sc(NC(=O)OC(C)(C)C)c1C(=O)O | 196 to 197 °C
COC(=O)Cc1ccc(CNC(=O)C2Cc3ccccc3N2S(=O)(=O)c2ccc(-c3cccc(C(F)(F)F)c3)cc2)c(Cl)c1 (stereo not given) | 124 to 126 °C
Oc1cccc(-n2nnnc2S)c1 | 176 to 178 °C
CCCCCCCCCCCCCCCCCC(=O)NCC(C)(C)COC(=O)CCCCCCCCCCCCCCCCC | 60 to 62 °C
O=CNC1=NN(c2cccc(Cl)c2)CC1 | 143 to 145 °C
CCOC(=O)CCc1cc(-c2ccc(C)cc2)n(-c2ccc(S(N)(=O)=O)cc2)n1 | 116 to 117 °C
OCc1cn(Cc2ccc3cc(OCc4ccccc4)ccc3c2)cc1-c1ccccc1 | 116 to 117 °C
COc1cc2c(cc1O)C(=O)CCC2 | 147 to 148 °C
Cc1nc2c(N)nc3c(c2n1CC(C)C)CCCC3 | 170 to 172 °C
C[Si](C)(C)NC(=O)CC(=O)N[Si](C)(C)C | 72 to 76 °C
COC(=O)C1CC2C3CCc4cc(O)ccc4C3CCC2(C)C1=O (stereo not given) | 215 to 217 °C
CN(C)c1ccc(NC(=O)N(CC2CCC(CN(C(=O)Nc3ccc(N(C)C)cc3)C3C4CC5CC(C4)CC3C5)CC2)C2C3CC4CC(C3)CC2C4)cc1 (stereo not given) | 182 to 185 °C

SMILES | melting point
O=[N+]([O-])c1cc(CCO)c(NCCO)c([N+](=O)[O-])c1 | 115 °C
O=C(c1ccc(Oc2ccc(F)cc2)nc1)N1CCCNCC1 | 95.4 °C
O=c1c2ccc(Cl)cc2n(Cc2ccccc2)n2cccc12 | 163 to 165 °C
CCCCCCCCCCCCCCCCCC(=O)Oc1nc2c(N)ncnc2n1Cc1ccccc1 | 128 to 129 °C
CC(C)=C1OC(=O)N(c2ccc(C)cc2)C1=O | 136 °C
CCCCOCCOC(=O)C(=O)Nc1nc(-c2ccccc2)cs1 | 94 to 95 °C
CC(C)C(NC=O)C(=O)O (stereo not given) | 143 to 145 °C
COc1ccc(C(=O)Nc2ccccc2)cc1NS(=O)(=O)c1ccc2ccccc2c1 | 223 to 225 °C
Cc1c(CN(C)CCc2ccc(NS(C)(=O)=O)cc2)oc2ccc([N+](=O)[O-])cc12 | 124 °C
COCc1cccc(C(C#N)c2nc(OC)cc(OC)n2)c1[N+](=O)[O-] (stereo not given) | 112 to 113 °C
CC(=O)Oc1c(OC(C)=O)c([C@H]2CC[C@H](c3ccc(Cl)cc3)CC2)c(OC(C)=O)c2ccccc12 | 177 to 179 °C
CCCn1nc2c(N)nc3ccccc3c2c1CCCCC(=N)NO | 222 to 224 °C
C=Cc1ccc(OCc2ccccc2)cc1 | 68 to 69 °C
N#Cc1ccc(CN2C(=O)C3(COc4cc5c(cc43)OCCO5)c3ccccc32)cc1 (stereo not given) | 69 to 72 °C
CONC(=O)c1ccccc1SCc1ccccc1 | 100 to 105 °C
Nc1ccccc1Cn1[nH]c2ccccc2c1=O | 204 to 205 °C
Cc1ccc2c(c1)cc(C(=O)OCc1ccccc1)n2CC(=O)OC(C)(C)C | 80 to 82 °C
CC(C)c1c[nH]c(=O)[nH]c1=O | 284 to 286 °C
C#Cc1cn(C2CC(N=[N+]=[N-])C(COC(c3ccccc3)(c3ccccc3)c3ccccc3)O2)c(=O)[nH]c1=O (stereo not given) | 110 °C

Results, then the compound that gave them:

melting point | SMILES
208 to 210 °C | CCOc1cc(Oc2ccc(S(C)(=O)=O)nc2)cc2cc(C3=NCC(CC(=O)O)S3)[nH]c12 (stereo not given)
175 to 179 °C | CCOC(=O)c1nc(-c2ccc(=O)n(CC)c2)c(-c2ccccc2)nc1N
54 to 56 °C | CC(COc1ccc(CC2SC(=O)NC2=O)cc1)N1CC(COc2ccccc2)OC1=O (stereo not given)
173 °C | CCCCOc1ccc(S(=O)(=O)C2(C(=O)NO)CCN(Cc3ccc(OC)cc3)CC2)cc1
> 350 °C | O=c1[nH]c2cc(Cl)ccc2c(O)c1-c1ccc([N+](=O)[O-])cc1
262 to 264 °C | COc1ccc(-c2c(=O)[nH]c3cc(Cl)c(Cl)cc3[n+]2[O-])cc1
138 to 140 °C | COC(=O)Nc1cc(Oc2ccc3c(ccn3C(=O)Nc3ccc(CN4CCN(C)CC4)c(C(F)(F)F)c3)c2)ncn1
69.5 to 70.5 °C | OC(CCCCCOc1cccc(Cl)c1)c1cccc(OCc2ccc3ccccc3n2)c1 (stereo not given)
198 to 199 °C | COc1cccc(C(=O)O)c1OCc1nc(-c2ccco2)oc1C
85 to 87 °C | CC(C)c1cn(C)cc(-c2ccc(Cl)c(C(F)(F)F)c2)c1=O
202 to 205 °C | Cc1ccc2c(Cl)ccnc2c1NC(=O)c1c(Cl)cccc1Cl
224 °C | CCn1cc(C(=O)O)c(=O)c2cc(F)c(N3CCN(C)C(c4ccc(C)s4)C3)cc21 (stereo not given)
178 to 183 °C | COc1cc2c(cc1-c1cccnc1)-c1c(-c3cccs3)c3c(n1CC2)C(=O)N(C(C)C)CCN(C(=O)C(C)C)C3
212 to 213 °C | COc1cc2ncnc(Nc3ccc(F)c(Cl)c3)c2cc1OCCN1CC(=O)O[C@@H](C)C1
> 250 °C | COc1ccc2cc3c(cc2c1)C(=O)NC3=O
230 °C | Cc1cc(-c2cc(C(F)(F)F)n3ncc(C(=O)Nc4cccc(S(=O)(=O)N5CCCC5)c4)c3n2)ccc1Cl
198 to 200 °C | CCN(CC)CCOC(=O)C1=C(C)Nc2ccnc(OC(C)C)c2C1c1ccccc1C(F)(F)F (stereo not given)

melting point | SMILES
102 to 104 °C | CCN(CC)c1ccc(/C=C/c2cc(/C=C/c3ccc4cc[nH]c4c3)[nH]n2)c(OCCN2CCCCC2)c1
111 to 121 °C | c1csc(CNCc2ccc(-c3cc4ncnc(Nc5ccc6[nH]ccc6c5)c4s3)cc2)c1
160 to 163 °C | CCC(c1oc2ccccc2c(=O)c1-c1ccccc1F)n1cnc2c(N)ncnc21 (stereo not given)
133 to 135 °C | Cc1cc(Sc2ccc3nc(CCl)n(C)c3n2)cc(C)c1[N+](=O)[O-]
89 to 90 °C | Cc1cc(CCCOc2c(C)cc(-c3noc(CI)n3)cc2C)on1
167 to 173 °C | CSc1nc(-c2cc(NC(=O)c3ccc(C)c(F)c3)ccc2C)c2c(n1)N(c1c(F)cccc1F)C(=O)NC2
212 to 214 °C | COc1ccc2c(c1)cc(-c1nc(C)no1)n2-c1ccc(CNC(=O)C2(NC(=O)OC(C)(C)C)CC2)cc1
169 to 170 °C | CCN(CC)c1cccc2nc3n(c12)CC(=O)CCN3c1ccc(Cl)cc1Cl
106 °C | Clc1ccc(C(Cn2cncn2)OCc2ccccc2Cl)c(Cl)c1 (stereo not given)
120 to 122 °C | COCc1nc2c(OCc3ccccc3)cccc2n1C
202 to 204 °C | Cc1ccc(S(=O)(=O)c2cnc(C)nc2Nc2c(C)cc(C)cc2C)cc1
107 to 109 °C | COc1cc(C)c(C=O)cc1OCc1ccccc1
173 to 174 °C | Cc1oc(-c2ccccc2)nc1COc1ccccc1CCCC1SC(=O)NC1=O (stereo not given)
144 to 146 °C | CCS(=O)(=O)N(C(C)=O)c1cc(-c2ncnc(C(F)(F)F)c2Cl)c(F)cc1C#N
129 to 131 °C | O=C1c2c(-c3ccccc3)cc(CNC3CC3)nc2OCCN1Cc1cc(C(F)(F)F)cc(C(F)(F)F)c1
269 °C | CCCc1ccc(-c2[nH]nc3c2C(=O)c2c(NC(C)=O)cccc2-3)cc1
262 °C | O=C(Nc1cccc(S(=O)(=O)NC2CC2)c1)c1cnn2c(C(F)F)cc(-c3ccc(Cl)cc3)nc12
